The test addresses TASK-1 (K2P3.1), wild type (Homo sapiens, UniProt O14649). The experiment in a line: two-electrode voltage clamp, Xenopus oocytes. The class given is cell-based. (Two-electrode voltage clamp is typically applied to oocytes expressing channels or transporters.)

A word on the EC50: it is the concentration that produces a half-maximal response.

TASK-1 (K2P3.1), wild type, sequence (O14649 whole entry): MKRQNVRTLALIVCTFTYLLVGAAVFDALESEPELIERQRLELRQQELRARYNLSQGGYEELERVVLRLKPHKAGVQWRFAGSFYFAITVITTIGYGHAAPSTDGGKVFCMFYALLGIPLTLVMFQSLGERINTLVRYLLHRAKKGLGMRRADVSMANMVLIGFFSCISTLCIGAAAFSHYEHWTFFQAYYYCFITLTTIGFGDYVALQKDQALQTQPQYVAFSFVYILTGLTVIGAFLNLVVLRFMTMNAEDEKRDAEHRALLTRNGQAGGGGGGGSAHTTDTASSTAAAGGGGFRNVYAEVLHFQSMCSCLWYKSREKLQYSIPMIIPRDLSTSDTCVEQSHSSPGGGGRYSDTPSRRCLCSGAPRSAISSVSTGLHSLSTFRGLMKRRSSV

On to `O=C(c1cccc(OC(F)(F)F)n1)N1CCN(Cc2c(-c3ccc(Cl)cc3)nc3ccccn23)CC1` [BAY 2341237, (4-{[2-(4-chlorophenyl)imidazo[1,2-a]pyridin-3-yl]methyl}piperazin-1-yl)[6-(trifluoromethoxy)pyridin-2-yl]methanone], for which the EC50 stood at 7.6 nM.

The values above are taken from paper doi:10.1101/706168v1 (biorxiv, 2019).
